This is an account of results in patent publication US10023562B2, “Heteroaryl substituted pyridyl compounds useful as kinase modulators” (BRISTOL-MYERS SQUIBB COMPANY, priority 2012, dated 2018).

The structures appear in SMILES notation.

Sequence of IRAK4 (Q9NWZ3 whole entry, species assumed): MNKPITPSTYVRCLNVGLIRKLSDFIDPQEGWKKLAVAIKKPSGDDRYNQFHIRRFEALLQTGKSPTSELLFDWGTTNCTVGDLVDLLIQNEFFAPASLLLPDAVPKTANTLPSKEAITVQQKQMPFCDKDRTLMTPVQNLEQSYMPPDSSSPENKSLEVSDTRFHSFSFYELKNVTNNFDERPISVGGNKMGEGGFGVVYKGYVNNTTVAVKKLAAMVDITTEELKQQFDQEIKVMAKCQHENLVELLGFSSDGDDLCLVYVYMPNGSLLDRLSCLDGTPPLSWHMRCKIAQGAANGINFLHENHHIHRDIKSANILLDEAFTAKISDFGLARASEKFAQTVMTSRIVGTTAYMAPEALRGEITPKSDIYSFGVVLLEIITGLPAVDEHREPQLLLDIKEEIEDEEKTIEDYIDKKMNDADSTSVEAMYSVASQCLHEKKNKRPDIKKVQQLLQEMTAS

One assay concerns TLR2 induced IL-6 in peripheral blood mononuclear cells (PBMCs). In words: PBMC TLR2 Induced IL-6 Assay. Format: cell-based. Conditions: Homo sapiens, PBMC, 5 h, 10 μg/ml lipoteichoic acid for 5 hours, IL-6 by ELISA, values marked * are EC50, read-out: Cell EC50 (values marked *). Here is the method: PBMC TLR2 Induced IL-6 Assay Peripheral blood mononuclear cells (PBMCs) were isolated from human blood containing the anti-coagulant EDTA (2.5 mM) by centrifugation over a FICOLL® gradient. […] At the end of the culture, plates were centrifuged at 1800 rpm for 10 minutes to pellet the cells. Supernatants were harvested and analyzed for IL-6 levels by ELISA (BD Biosciences, San Jose, Calif.).
In general terms: In an ELISA, binding on a coated surface is turned into a signal by an enzyme label.
Take `CC(C)Nc1cc(Nc2ncc(Cl)cc2Cl)ncc1C(=O)NC[C@@H](F)C(C)(C)O` [Example 84]: the EC50 is 138 nM.
On to `CC(C)(O)[C@H](F)CNC(=O)c1cnc(Nc2ncc(C#N)cc2Cl)cc1NC12CC(C1)C2` [Example 90], for which the EC50 amounted to 243 nM.
As for `C[C@@H](CO)Nc1cc(Nc2ncc(C#N)cc2F)ncc1C(=O)NC[C@@H](F)C(C)(C)O` [Example 91], the EC50 is 178 nM.
On to `CC(C)(O)[C@H](F)CNC(=O)c1cnc(Nc2ncc(C#N)cc2Cl)cc1Nc1cccc(C#N)c1` [Example 162], for which the EC50 came out at 330 nM.
As to `CC(C)(O)[C@H](F)CNC(=O)c1cnc(Nc2ncc(C#N)cc2Cl)cc1NCC(F)(F)F` [Example 65], the EC50 came to 156 nM.
As to `CC(C)CNc1cc(Nc2ncc(C#N)cc2Cl)ncc1C(=O)NC[C@@H](F)C(C)(C)O` [Example 155], the EC50 is 309 nM.
For `CC(C)Nc1cc(Nc2ncc(C#N)cc2F)ncc1C(=O)N[C@H]1CC[C@H](C(=O)NC(C)C)CC1` [Example 116], the EC50 was found to be 130 nM.
`CC(C)(O)[C@H](F)CNC(=O)c1cnc(Nc2ncc(C#N)cc2Cl)cc1NC1CCCCC1O` (some centres unmarked) [Example 104]: the EC50 is 199 nM.
The same measure, in the same setting: for `CS[C@H]1CC[C@H](NC(=O)c2cnc(Nc3ncc(C#N)cc3F)cc2NC(C)C)CC1` [Example 32, 6-((5-cyano-3-fluoropyridin-2-yl)amino)-4-(isopropylamino)-N-((1R,4R)-4-(methylthio)cyclohexyl)nicotinamide] the value was 199 nM; for `CC(C)Nc1cc(Nc2ccc(C#N)cn2)ncc1C(=O)NC1CCC(O)(c2ccnn2C)CC1` (centres unmarked) [Example 31, 6-((5-cyanopyridin-2-yl)amino)-N-((1s,4s)-4-hydroxy-4-(1-methyl-1H-pyrazol-5-yl)cyclohexyl)-4-(isopropylamino)nicotinamide], 170 nM; for `CC(C)(O)[C@H](F)CNC(=O)c1cnc(Nc2ncc(C#N)cn2)cc1N[C@H]1CCC[C@H]1F` [Example 107], 757 nM.
As to `[2H]C([2H])([2H])OC(C)(C)[C@H](F)CNC(=O)c1cnc(Nc2ncc(C#N)cc2F)cc1NC(C)C` [Example 37], the EC50 worked out at 95 nM.
As to `C[C@@H](CF)Nc1cc(Nc2ncc(C#N)cc2Cl)ncc1C(=O)NC[C@@H](F)C(C)(C)O` [Example 39, 6-((3-chloro-5-cyanopyridin-2-yl)amino)-N—((R)-2-fluoro-3-hydroxy-3-methylbutyl)-4-(((S)-1-fluoropropan-2-yl)amino)nicotinamide], the concentration for a half-maximal effect (EC50) turned out to be 100 nM.
Same read-out and setting: for `CC(=O)Nc1nc(Nc2cc(NC(C)C)c(C(=O)NC[C@@H](F)C(C)(C)O)cn2)ncc1C#N` [Example 34] the value was 122 nM.
Consider `CC(C)(O)[C@H](F)CNC(=O)c1cnc(Nc2ncc(C#N)cc2F)cc1Nc1cccc(NS(C)(=O)=O)c1` [Example 134], for which the EC50 amounted to 203 nM.
Regarding `CS(=O)(=O)[C@H]1CC[C@H](NC(=O)c2cnc(Nc3ncc(C#N)cc3Cl)cc2NC2CC2)CC1` [Example 151], the EC50 worked out at 187 nM.
Still for that read-out and setting: as for `CC(C)Nc1cc(Nc2ncc(C#N)cc2F)ncc1C(=O)N[C@H]1CC[C@H](C(=O)NC2CC2)CC1` [Example 118], the figure is 172 nM.
In the case of `CC(C)Nc1cc(Nc2ncncc2N)ncc1C(=O)NC[C@@H](F)C(C)(C)O` [Example 132], the EC50 worked out at 862 nM.
Regarding `CC(C)(O)[C@H](F)CNC(=O)c1cnc(Nc2ncncc2F)cc1NC1CC1` [Example 94], the half-maximal effective concentration (EC50) was determined as 391 nM.
Turning to `Cc1nc(Nc2cc(NC(C)C)c(C(=O)NC[C@@H](F)C(C)(C)O)cn2)ccc1C#N` [Example 63], the EC50 came to 92 nM.
For the compound `CC(C)(O)[C@H](F)CNC(=O)c1cnc(Nc2ncc(C#N)cc2F)cc1Nc1cccc(S(N)(=O)=O)c1` [Example 128], the EC50 was 224 nM.

The same assay, now with this note: Homo sapiens, PBMC, 5 h, 10 μg/ml lipoteichoic acid for 5 hours, IL-6 by ELISA, values without asterisk, read-out: Cell IC50.
Regarding `CC(C)Nc1cc(Nc2ccnc(NC3CC3)n2)ncc1C(=O)NC[C@@H](F)C(C)(C)O` [Example 24, 6-((2-(cyclopropylamino)-4-pyrimidinyl)amino)-N-((2R)-2-fluoro-3-hydroxy-3-methylbutyl)-4-(isopropylamino)nicotinamide], the IC50 came to 312 nM.
With `CNC(=O)c1cnc(Nc2ccc(C#N)cn2)cc1N[C@@H](c1ccccc1)[C@H](O)CO` [Example 1, 6-((5-cyano-2-pyridinyl)amino)-4-(((1S,2S)-2,3-dihydroxy-1-phenylpropyl)amino)-N-methylnicotinamide], the IC50 stood at 550 nM.
Consider `CC(C)(O)[C@H](F)CNC(=O)c1cnc(Nc2ncc(C#N)cc2F)cc1NC1CC1` [Example 47], for which the IC50 stood at 69 nM.
For `CC(C)Nc1cc(Nc2ccc(C#N)cn2)ncc1C(=O)N[C@H]1CC[C@H](C(=O)NC2CC2)CC1` [Example 6, 6-((5-cyanopyridin-2-yl)amino)-N-((1R,4R)-4-(cyclopropylcarbamoyl)cyclohexyl)-4-(isopropylamino)nicotinamide], the IC50 was 648 nM.
As for `CC(C)Nc1cc(Nc2ccncn2)ncc1C(=O)NC[C@@H](F)C(C)(C)O` [Example 20, N-((2R)-2-fluoro-3-hydroxy-3-methylbutyl)-4-(isopropylamino)-6-(4-pyrimidinylamino)nicotinamide], the IC50 came to 647 nM.
Consider `CC(C)Nc1cc(Nc2ccnc(NC3CCCOC3)n2)ncc1C(=O)NC[C@@H](F)C(C)(C)O` (stereo partly drawn) [Example 25, N-((2R)-2-fluoro-3-hydroxy-3-methylbutyl)-4-(isopropylamino)-6-((2-(tetrahydro-2H-pyran-3-ylamino)-4-pyrimidinyl)amino)nicotinamide], for which the IC50 amounted to 372 nM.
For `CC(C)Nc1cc(Nc2ccc(C#N)cn2)ncc1C(=O)NC[C@@H](F)C(C)(C)O` [Example 2, 6-((5-cyano-2-pyridinyl)amino)-N-((2R)-2-fluoro-3-hydroxy-3-methylbutyl)-4-(isopropylamino)nicotinamide], the IC50 was 453 nM.
Consider `CC(=O)N[C@H]1CC[C@H](NC(=O)c2cnc(Nc3ccc(C#N)cn3)cc2NC(C)C)CC1` [Example 9, N-(trans-4-acetamidocyclohexyl)-6-((5-cyano-2-pyridinyl)amino)-4-(isopropylamino)nicotinamide], for which the IC50 was 116 nM.
On to `CNC(=O)[C@H]1CC[C@H](NC(=O)c2cnc(Nc3ncc(C#N)cc3F)cc2NC2CC2)CC1` [Example 59], for which the IC50 stood at 60 nM.
Take `CC(C)Nc1cc(Nc2ncc(C#N)cc2Cl)ncc1C(=O)NC[C@@H](F)C(C)(C)O` [Example 12, 6-((3-chloro-5-cyano-2-pyridinyl)amino)-N-((2R)-2-fluoro-3-hydroxy-3-methylbutyl)-4-(isopropylamino)nicotinamide]: the IC50 was 50 nM.
Still for that read-out and setting: as for `CC(C)NC(=O)N[C@H](C)CCNC(=O)c1cnc(Nc2ncc(C#N)cc2F)cc1NC(C)C` [Example 29, (R)-6-((5-cyano-3-fluoropyridin-2-yl)amino)-4-(isopropylamino)-N-(3-(3-isopropylureido)butyl)nicotinamide], the figure is 111 nM; as for `CC(C)(O)[C@H](F)CNC(=O)c1cnc(Nc2ncc(C#N)cc2Cl)cc1NC1CCOCC1` [Example 13, 6-((3-chloro-5-cyano-2-pyridinyl)amino)-N-((2R)-2-fluoro-3-hydroxy-3-methylbutyl)-4-(tetrahydro-2H-pyran-4-ylamino)nicotinamide], 420 nM.

Still in this assay, the particulars now being: human PBMC, 10 μg/ml lipoteichoic acid for 5 hours, IL-6 by ELISA; values marked * are EC50; read-out: Cell EC50 (values marked *).
`CC(C)(O)[C@H](F)CNC(=O)c1cnc(Nc2ncc(C#N)cc2F)cc1NC1COC1` [Example 164]: the EC50 was determined as 174 nM.

The next assay deals with IRAK4 (Homo sapiens (Human), UniProt Q9NWZ3). The experiment in a line: IRAK4 Inhibition Assay. Conditions: ATP 500 μM; IRAK4 0.6 nM; 60 min at room temperature. Format: biochemical. As for the experimental part:
IRAK4 Inhibition Assay The assays were performed in U-bottom 384-well plates. […] The reaction was initiated by the combination of IRAK4 with substrates and test compounds. The reaction mixture was incubated at room temperature for 60 min. and terminated by adding 45 μL of 35 mM EDTA to each sample. The reaction mixture was analyzed on the Caliper LABCHIP® 3000 (Caliper, Hopkinton, Mass.) by electrophoretic separation of the fluorescent substrate and phosphorylated product.
Take `CC(C)Nc1cc(Nc2ncc(Cl)cc2Cl)ncc1C(=O)NC[C@@H](F)C(C)(C)O` [Example 84]: the IC50 is 1.5 nM.

As usually defined, the EC50 is the concentration that produces a half-maximal response. What is called IC50 is the point on the concentration scale where inhibition reaches its midpoint.
